pIC50: −log10 of the molar value. Strand notation (5' to 3'): a small letter for the sugar, then the base; units joined by * are phosphorothioate-linked, units joined directly phosphodiester-linked; [ ] holds rarer units or linkages, { } end groups; capitals alone tell only the bases. k = constrained ethyl (cEt); [5mC] = 5-methylcytosine; d = 2'-deoxy (DNA)
Tested on: Yap1 mRNA
Assay: Dose-dependent inhibition of human Yap1 in A-431 cells (Example 6, 5,000 cells per well, RTS4814)
Type: cell-based
Conditions: for Yap1 mRNA, % UTC: 48 hours; for % UTC 148 nM / % UTC 444 nM / % UTC 1333 nM / % UTC 4000 nM: approximately 48 hours
Description: Modified oligonucleotides described in the studies above were tested at various doses in A-431 cells. Cultured A-431 cells at a density of 5,000 cells per well were treated using free uptake with modified oligonucleotides diluted to concentrations described in the tables below. After approximately 48 hours, Yap1 mRNA levels were measured as previously described using the Human Yap1 primer-probe set RTS4814. Yap1 mRNA levels were normalized to total RNA content, as measured by RIBOGREEN®. Results are presented in the tables below as percent control of the amount of Yap1 mRNA relative to untreated control cells (% UTC). IC50s were calculated using a linear regression on a log/linear plot of the data in excel.

[1] = Table 55, 148 nM, free uptake, A-431 cells 5,000 cells per well, RTS4814
[2] = Table 55, 444 nM, free uptake, A-431 cells 5,000 cells per well, RTS4814
[3] = Table 55, 1333 nM, free uptake, A-431 cells 5,000 cells per well, RTS4814
[4] = Table 55, 4000 nM, free uptake, A-431 cells 5,000 cells per well, RTS4814
[5] = Table 55, A-431 cells 5,000 cells per well, free uptake, RTS4814
[6] = Table 54, A-431 cells, Yap1 mRNA, linear regression on a log/linear plot
[7] = Table 54, A-431 cells, free uptake, 148 nM, RTS4814
[8] = Table 54, A-431 cells, free uptake, 444 nM, RTS4814
[9] = Table 54, A-431 cells, free uptake, 1333 nM, RTS4814
[10] = Table 54, A-431 cells, free uptake, 4000 nM, RTS4814

Row | Substance | Yap1 mRNA, % UTC [1] [% UTC] | Yap1 mRNA, % UTC [2] [% UTC] | Yap1 mRNA, % UTC [3] [% UTC] | Yap1 mRNA, % UTC [4] [% UTC] | pIC50 [5] | pIC50 [6] | % UTC 148 nM [7] [% UTC] | % UTC 444 nM [8] [% UTC] | % UTC 1333 nM [9] [% UTC] | % UTC 4000 nM [10] [% UTC]
1 | 716381 (kT*kG*kT*d[5mC]*dT*dG*dA*dT*d[5mC]*dG*dA*dT*dG*kT*kG*kA; antisense) [compound 716381] | 106 | 90 | 80 | 44 | 5.38 | – | – | – | – | –
2 | 716387 (antisense kT*kA*kT*dG*dG*dT*dT*dT*dA*dT*dA*dT*dA*kG*kT*kA) [compound 716387] | 94 | 94 | 80 | 67 | < 5.40 | – | – | – | – | –
3 | 716407 (antisense k[5mC]*kT*kT*dA*dG*dT*d[5mC]*d[5mC]*dA*d[5mC]*dT*dG*dT*k[5mC]*kT*kG) [compound 716407] | 84 | 75 | 72 | 39 | 5.52 | – | – | – | – | –
4 | 716419 (antisense kT*kT*kT*d[5mC]*d[5mC]*dG*dG*dT*dG*d[5mC]*dA*dT*dG*kT*kG*kT) [compound 716419] | 89 | 84 | 49 | 47 | 5.60 | – | – | – | – | –
5 | 716438 (antisense kA*kT*kT*dT*dT*dT*dG*dG*d[5mC]*dT*dT*dG*dT*k[5mC]*kA*kG) [compound 716438] | 93 | 75 | 62 | 49 | 5.47 | – | – | – | – | –
6 | 716445 (antisense kG*kT*kA*dT*dG*dT*dG*dG*d[5mC]*dA*dA*dT*dA*kA*kT*kT) [compound 716445] | – | – | – | – | – | 5.59 | 89 | 82 | 56 | 44
7 | 716469 (antisense kG*kT*kT*dT*dG*d[5mC]*dT*d[5mC]*d[5mC]*dT*dT*dT*d[5mC]*k[5mC]*kA*kA) [compound 716469] | – | – | – | – | – | < 5.40 | 71 | 78 | 89 | 39
8 | 716479 (antisense kG*kA*kA*d[5mC]*dA*dA*dT*d[5mC]*dT*dT*dG*dA*dA*kG*kG*k[5mC]) [compound 716479] | 88 | 78 | 55 | 57 | < 5.40 | – | – | – | – | –
9 | 716484 (antisense k[5mC]*kA*k[5mC]*dT*dT*dT*dT*d[5mC]*d[5mC]*dA*dG*d[5mC]*dT*kA*kA*k[5mC]) [compound 716484] | – | – | – | – | – | < 5.40 | 88 | 78 | 80 | 55
10 | 716489 (antisense kA*kG*kT*dT*dA*dA*dT*dT*d[5mC]*dA*dT*dG*d[5mC]*kT*k[5mC]*kG) [compound 716489] | 84 | 83 | 69 | 61 | < 5.40 | – | – | – | – | –
11 | 716493 (antisense kA*k[5mC]*kA*dT*dT*dG*dA*dA*dA*dG*dA*d[5mC]*d[5mC]*k[5mC]*kT*kT) [compound 716493] | – | – | – | – | – | < 5.40 | 95 | 97 | 86 | 72
12 | 716496 (antisense kG*kA*kA*dG*dA*dG*dA*dT*dT*dT*dT*dA*dT*kG*k[5mC]*k[5mC]) [compound 716496] | – | – | – | – | – | < 5.40 | 74 | 87 | 64 | 49
13 | 716500 (antisense kA*kA*k[5mC]*dT*dT*d[5mC]*dT*dT*dA*d[5mC]*dT*dT*d[5mC]*k[5mC]*kA*kA) [compound 716500] | 88 | 96 | 79 | 46 | < 5.40 | – | – | – | – | –
14 | 716501 (antisense kG*k[5mC]*kA*d[5mC]*dT*dG*dA*dA*dA*dG*dT*dA*d[5mC]*kT*kT*kA) [compound 716501] | 91 | 69 | 66 | 55 | < 5.40 | – | – | – | – | –
15 | 716503 (antisense kT*kT*kA*dT*dT*dA*dT*dG*dA*dG*dT*dG*dA*kT*k[5mC]*kA) [compound 716503] | 91 | 80 | 67 | 64 | < 5.40 | – | – | – | – | –
16 | 716505 (antisense kG*kA*kT*dT*dT*dA*dA*dT*d[5mC]*dT*dT*dT*d[5mC]*kT*kG*k[5mC]) [compound 716505] | – | – | – | – | – | < 5.40 | 83 | 103 | 82 | 66
17 | 716524 (antisense kA*k[5mC]*kT*dG*dA*dG*dG*dT*dA*dT*dA*dA*d[5mC]*kT*kG*kG) [compound 716524] | 103 | 92 | 96 | 62 | < 5.40 | – | – | – | – | –
18 | 716537 (antisense kA*kT*kG*dT*dG*d[5mC]*dT*d[5mC]*d[5mC]*dA*dT*d[5mC]*dA*kA*k[5mC]*k[5mC]) [compound 716537] | 120 | 96 | 88 | 63 | < 5.40 | – | – | – | – | –
19 | 716543 (antisense kT*kA*kT*dT*dT*dG*dT*dA*dG*d[5mC]*dA*dA*dA*kG*kT*k[5mC]) [compound 716543] | 62 | 99 | 79 | 64 | < 5.40 | – | – | – | – | –
